We go through 28 compounds from patent US9783536B2, “Nitrogen-containing heterocyclic compound or salt thereof” (FUJIFILM Corporation, priority 2013, dated 2017).

SMILES strings stand for the structures. pIC50: −log10 of the molar value. Where two headings read alike, the source gives them in different places.

Assay [1] deals with T1, GST fusion human ERK2 protein (Homo sapiens, UniProt P28482).
T1 construct: purchased Carna Biosciences, Inc; host or cells: E. coli expression system
As to the kind of experiment: ERK2 enzyme assay (2). The format is biochemical. Conditions: read-out: ERK2 enzyme inhibitory activity (2). Put shortly:
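GST-tagged human ERK2 expressed in E. coli (1.25 nmol/L) was preincubated with compound for 15 min at room temperature in pH 7.5 Hepes buffer with MgCl2, DTT and Brij35. Reaction with FL-Peptide 8 (final 4.25 μmol/L) and ATP (final 1 mmol/L) ran 120 min at 25 °C; EDTA stopped it, and phosphorylated peptide was quantified by mobility-shift separation to derive IC50.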

The target in assay [2] is T1, GST fusion human ERK2 protein. In words: ERK2 enzyme assay (1). Type of assay: biochemical. Conditions: read-out: ERK2 enzyme inhibitory activity (1). Put shortly: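 Enzyme (2.5 nmol/L, E. coli-expressed) preincubated with compound 15 min at room temperature in HEPES/MgCl2/DTT/Brij35 buffer, pH 7.5; reaction with 4.25 μmol/L FL-Peptide 8 and 43.1 μmol/L ATP for 120 min at 25 °C. Phosphorylated peptide fraction quantified by mobility-shift separation after EDTA stop; IC50 calculated.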

The target in another assay is T2, human PI3Kα protein (Homo sapiens, UniProt P42336).
T2 construct: purchased Carna Biosciences, Inc; host or cells: baculovirus expression system
As to the kind of experiment: PI3Kα enzyme assay (ADP-Glo). The format is biochemical. Conditions: read-out: PI3Kα enzyme inhibitory activity. Summed up:
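Biotinylated human PI3Kα (baculovirus-expressed, 4.5 nmol/L) pre-incubated 15 min with compound in Tris-HCl pH 7.5, MgCl2, BSA; reaction 60 min at 25° C with 50 μmol/L PIP2 and 100 μmol/L ATP final. ADP quantified by ADP-Glo luminescence; IC50 calculated.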
In general terms: ADP-Glo turns the ADP formed in a reaction into a luminescent signal.

The subject of another assay is CHO-K1 cells. In words: CHO cell toxicity test. The format is cell-based, Chinese hamster. Conditions: Cricetulus griseus; CHO-K1 cells, 24 hours culture with compound, CellTiter-Glo; read-out: IC50 value (concentration at which the number of viable cells was suppressed to 50% or less). Summed up: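 CHO-K1 cells were cultured 24 h, then exposed 24 h to compound at final 25.00 to 0.20 μmol/L in F-12 with 2% FCS. Viability read by CellTiter-Glo luminescence; inhibition % = 100 − (treated/untreated signal)×100.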
(In general: Cellular ATP, detected with luciferase, serves as a proxy for viable cell number.)

[3] abbreviates: 2.5 nmol/L ERK2, ATP 43.1 μmol/L.
The mark [4] stands for this setting: 4.5 nmol/L PI3Kα, PIP2 50 μmol/L, ATP 100 μmol/L.

T2 sequence (P42336 whole entry): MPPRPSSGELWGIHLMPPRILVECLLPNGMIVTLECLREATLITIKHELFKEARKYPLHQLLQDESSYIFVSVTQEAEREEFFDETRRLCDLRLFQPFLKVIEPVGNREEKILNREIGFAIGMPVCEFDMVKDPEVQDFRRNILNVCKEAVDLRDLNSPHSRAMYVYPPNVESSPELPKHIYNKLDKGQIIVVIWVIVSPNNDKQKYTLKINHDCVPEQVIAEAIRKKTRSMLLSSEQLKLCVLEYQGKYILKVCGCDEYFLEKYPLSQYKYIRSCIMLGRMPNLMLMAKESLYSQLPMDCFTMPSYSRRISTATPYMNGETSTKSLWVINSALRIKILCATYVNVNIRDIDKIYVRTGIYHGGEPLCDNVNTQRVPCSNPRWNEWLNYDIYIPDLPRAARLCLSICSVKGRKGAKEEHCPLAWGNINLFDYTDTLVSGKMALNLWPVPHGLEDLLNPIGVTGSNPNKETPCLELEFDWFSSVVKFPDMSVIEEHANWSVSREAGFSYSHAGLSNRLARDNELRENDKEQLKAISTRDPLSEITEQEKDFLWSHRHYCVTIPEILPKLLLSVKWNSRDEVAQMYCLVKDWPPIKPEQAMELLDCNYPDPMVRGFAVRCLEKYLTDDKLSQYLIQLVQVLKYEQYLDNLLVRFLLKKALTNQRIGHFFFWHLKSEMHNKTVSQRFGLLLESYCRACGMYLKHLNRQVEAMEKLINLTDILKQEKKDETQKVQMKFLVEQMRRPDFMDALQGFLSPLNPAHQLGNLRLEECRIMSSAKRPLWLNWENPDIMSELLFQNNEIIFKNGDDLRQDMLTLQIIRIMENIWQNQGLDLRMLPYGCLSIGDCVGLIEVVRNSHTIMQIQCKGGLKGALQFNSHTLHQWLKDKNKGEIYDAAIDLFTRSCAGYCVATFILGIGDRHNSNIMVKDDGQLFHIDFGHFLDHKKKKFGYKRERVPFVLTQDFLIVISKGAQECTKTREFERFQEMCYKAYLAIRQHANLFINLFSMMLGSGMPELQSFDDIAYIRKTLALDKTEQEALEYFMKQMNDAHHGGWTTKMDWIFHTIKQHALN
T2 sequence (P27986 whole entry partner): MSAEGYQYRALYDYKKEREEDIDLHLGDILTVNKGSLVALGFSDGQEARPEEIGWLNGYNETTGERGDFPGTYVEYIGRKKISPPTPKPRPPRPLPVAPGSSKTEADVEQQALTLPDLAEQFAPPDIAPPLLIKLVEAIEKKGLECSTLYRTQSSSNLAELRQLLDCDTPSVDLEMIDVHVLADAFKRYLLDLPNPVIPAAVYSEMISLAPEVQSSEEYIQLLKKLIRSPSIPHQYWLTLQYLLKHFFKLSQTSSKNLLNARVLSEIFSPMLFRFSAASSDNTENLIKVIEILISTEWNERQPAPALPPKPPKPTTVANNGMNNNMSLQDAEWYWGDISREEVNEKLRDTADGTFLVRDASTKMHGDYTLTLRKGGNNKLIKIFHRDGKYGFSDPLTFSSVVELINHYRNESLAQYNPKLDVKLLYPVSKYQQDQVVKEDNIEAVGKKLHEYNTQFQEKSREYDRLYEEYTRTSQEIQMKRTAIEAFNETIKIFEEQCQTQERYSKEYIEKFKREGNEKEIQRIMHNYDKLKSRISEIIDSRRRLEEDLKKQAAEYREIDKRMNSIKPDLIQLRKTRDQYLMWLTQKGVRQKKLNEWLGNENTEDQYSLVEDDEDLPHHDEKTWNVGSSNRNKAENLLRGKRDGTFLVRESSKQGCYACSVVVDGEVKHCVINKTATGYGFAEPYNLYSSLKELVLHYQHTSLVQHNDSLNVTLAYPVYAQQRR
T1 sequence (P28482 whole entry, the tested form may be a part): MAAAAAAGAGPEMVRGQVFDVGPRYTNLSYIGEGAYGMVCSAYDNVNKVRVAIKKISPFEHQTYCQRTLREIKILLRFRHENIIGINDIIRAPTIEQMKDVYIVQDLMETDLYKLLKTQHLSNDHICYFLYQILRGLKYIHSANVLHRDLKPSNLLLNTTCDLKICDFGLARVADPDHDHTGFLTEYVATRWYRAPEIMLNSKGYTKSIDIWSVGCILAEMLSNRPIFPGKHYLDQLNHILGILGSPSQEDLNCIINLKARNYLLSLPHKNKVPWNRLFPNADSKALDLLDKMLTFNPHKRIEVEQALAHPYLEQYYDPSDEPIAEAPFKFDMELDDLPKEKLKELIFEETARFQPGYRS

As to `c1nc2ccc(Nc3cc(C4CCC4)cnn3)nc2cc1-c1cnn(CCCN2CCCC2)c1` [Example 0015, N-(5-cyclobutylpyridazin-3-yl)-7-(1-(3-(pyrrolidin-1-yl)propyl)-1H-pyrazol-4-yl)-1,5-naphthyridine-2-amineformate], the pIC50 in assay [1] (1.25 nmol/L ERK2, ATP 1 mmol/L) was > 6.00; in assay [2] (setting [3]), > 6.00; at human PI3Kα protein (setting [4]), > 6.00; in the assay with CHO-K1 cells it was ≤ 4.60.

Regarding `COCc1cnnc(Nc2ccc3ncc(-c4cnn(CCCN5CCCC5)c4)cc3n2)c1` [Example 0018], the pIC50 in assay [1] (1.25 nmol/L ERK2, ATP 1 mmol/L) is > 6.00; in assay [2] (setting [3]) it was > 6.00; at human PI3Kα protein (setting [4]), > 6.00; in the assay on CHO-K1 cells, ≤ 4.60.

As to `Cc1nnc(Nc2ccc3ncc(-c4cnn(C)c4)cc3n2)s1` [Example 0027], the pIC50 is > 6.00 in assay [1] (1.25 nmol/L ERK2, ATP 1 mmol/L); > 6.00 in assay [2] (setting [3]); > 6.00 on human PI3Kα protein (setting [4]); ≤ 4.60 in the assay on CHO-K1 cells.

With `CCCc1nn(C)cc1-c1cnc2ccc(Nc3nnc(C(C)C)s3)nc2c1` [Example 0122], the pIC50 in assay [1] (1.25 nmol/L ERK2, ATP 1 mmol/L) was > 6.00; in assay [2] (setting [3]), > 6.00; at human PI3Kα protein (setting [4]), > 6.00; in the assay on CHO-K1 cells, ≤ 4.60.

With `CCCCc1nn(C)cc1-c1cnc2ccc(Nc3nnc(C(C)C)s3)nc2c1` [Example 0130], the pIC50 in assay [1] (1.25 nmol/L ERK2, ATP 1 mmol/L) is > 6.00; in assay [2] (setting [3]) it was > 6.00; on human PI3Kα protein (setting [4]) it was > 6.00; in the assay with CHO-K1 cells, ≤ 4.60.

With `c1cnnc(Nc2ccc3ncc(-c4cnn(CCCN5CCCC5)c4)cc3n2)c1` [Example 0137, N-(pyridazin-3-yl)-7-(1-(3-(pyrrolidin-1-yl)propyl)-1H-pyrazol-4-yl)-1,5-naphthyridine-2-amine], the pIC50 is > 6.00 in assay [1] (1.25 nmol/L ERK2, ATP 1 mmol/L); > 6.00 in assay [2] (setting [3]); > 6.00 at human PI3Kα protein (setting [4]); ≤ 4.60 in the assay on CHO-K1 cells.

`Cc1cnnc(Nc2ccc3ncc(-c4cnn(C)c4)cc3n2)c1` [Example 0139]: the pIC50 was > 6.00 in assay [1] (1.25 nmol/L ERK2, ATP 1 mmol/L); > 6.00 in assay [2] (setting [3]); > 6.00 on human PI3Kα protein (setting [4]); ≤ 4.60 with CHO-K1 cells.

Take `Cc1cnnc(Nc2ccc3ncc(-c4cnn(CCCN5CCCC5)c4)cc3n2)c1` [Example 0140]: the pIC50 is > 6.00 in assay [1] (1.25 nmol/L ERK2, ATP 1 mmol/L); > 6.00 in assay [2] (setting [3]); > 6.00 at human PI3Kα protein (setting [4]); ≤ 4.60 with CHO-K1 cells.

For `CC(C)c1cnnc(Nc2ccc3ncc(-c4cnn(C)c4)cc3n2)c1` [Example 0145], the pIC50 is > 6.00 in assay [1] (1.25 nmol/L ERK2, ATP 1 mmol/L); > 6.00 in assay [2] (setting [3]); > 6.00 on human PI3Kα protein (setting [4]); ≤ 4.60 in the assay on CHO-K1 cells.

Take `CC(C)c1cnnc(Nc2ccc3ncc(-c4cnn(CCCN5CCCC5)c4)cc3n2)c1` [Example 0148]: the pIC50 was > 6.00 in assay [1] (1.25 nmol/L ERK2, ATP 1 mmol/L); > 6.00 in assay [2] (setting [3]); > 6.00 at human PI3Kα protein (setting [4]); ≤ 4.60 in the assay with CHO-K1 cells.

As for `Cc1[nH]ncc1-c1cnc2ccc(Nc3nnc(C4CCCC4)s3)nc2c1` [Example 0214], the pIC50 in assay [1] (ERK2 enzyme assay (2)) was > 6.00; in assay [2] (ERK2 enzyme assay (1)), > 6.00; on human PI3Kα protein, 5.00 to 6.00; with CHO-K1 cells, ≤ 4.60.

With `Cn1cc(-c2cnc3ccc(Nc4nnc(N5CCOCC5)s4)nc3c2)cn1` [Example 0226, N-(7-(1-methyl-1H-pyrazol-4-yl)-1,5-naphthyridin-2-yl)-5-morpholino-1,3,4-thiadiazole-2-amine], the pIC50 was > 6.00 in assay [1] (ERK2 enzyme assay (2)), > 6.00 in assay [2] (ERK2 enzyme assay (1)), 5.00 to 6.00 on human PI3Kα protein and ≤ 4.60 with CHO-K1 cells.

Take `Cn1cc(-c2cnc3ccc(Nc4nnc(C5CCCO5)s4)nc3c2)cn1` (stereo not shown) [Example 0227]: the pIC50 is > 6.00 in assay [1] (ERK2 enzyme assay (2)), > 6.00 in assay [2] (ERK2 enzyme assay (1)), > 6.00 on human PI3Kα protein and ≤ 4.60 with CHO-K1 cells.

In the case of `c1nc2ccc(Nc3nnc(CC4CCCO4)s3)nc2cc1-c1cnn(CCCN2CCCC2)c1` (stereo not shown) [Example 0240], the pIC50 is > 6.00 in assay [1] (ERK2 enzyme assay (2)), > 6.00 in assay [2] (ERK2 enzyme assay (1)), > 6.00 on human PI3Kα protein and ≤ 4.60 with CHO-K1 cells.

In the case of `Cn1cc(-c2cnc3ccc(Nc4nnc(CC5CCCO5)s4)nc3c2)cn1` (stereo not shown) [Example 0241], the pIC50 is > 6.00 in assay [1] (ERK2 enzyme assay (2)), > 6.00 in assay [2] (ERK2 enzyme assay (1)), 5.00 to 6.00 on human PI3Kα protein and ≤ 4.60 in the assay on CHO-K1 cells.

Turning to `Cn1cc(-c2cnc3ccc(Nc4nnc(C5CCOC5)s4)nc3c2)cn1` (stereo not shown) [Example 0243, N-(7-(1-methyl-1H-pyrazol-4-yl)-1,5-naphthyridin-2-yl)-5-(tetrahydrofuran-3-yl)-1,3,4-thiadiazole-2-amine], the pIC50 in assay [1] (ERK2 enzyme assay (2)) is > 6.00; in assay [2] (ERK2 enzyme assay (1)) it was > 6.00; at human PI3Kα protein, > 6.00; in the assay with CHO-K1 cells, ≤ 4.60.

For the compound `CN1CCCC1c1nnc(Nc2ccc3ncc(-c4cnn(C)c4)cc3n2)s1` (stereo not shown) [Example 0247, N-(7-(1-methyl-1H-pyrazol-4-yl)-1,5-naphthyridin-2-yl)-5-(1-methylpyrrolidin-2-yl)-1,3,4-thiadiazole-2-amine], the pIC50 in assay [1] (ERK2 enzyme assay (2)) was > 6.00; in assay [2] (ERK2 enzyme assay (1)) it was > 6.00; at human PI3Kα protein, 5.00 to 6.00; in the assay on CHO-K1 cells, ≤ 4.60.

As for `COc1cncc(Nc2cnc3ccc(Nc4nnc(CC5CCCO5)s4)nc3c2)c1` (stereo not shown) [Example 0250, N^7-(5-methoxypyridin-3-yl)-N^2-(5-((tetrahydrofuran-2-yl)methyl)-1,3,4-thiadiazol-2-yl)-1,5-naphthyridine-2,7-diamine], the pIC50 in assay [1] (ERK2 enzyme assay (2)) was > 6.00; in assay [2] (ERK2 enzyme assay (1)), > 6.00; on human PI3Kα protein, > 6.00; in the assay on CHO-K1 cells, ≤ 4.60.

On to `CCc1cnnc(Nc2ccc3ncc(-c4cnn(CCCN5CCCC5)c4)cc3n2)c1` [Example 0291], for which the pIC50 is > 6.00 in assay [1] (ERK2 enzyme assay (2)), > 6.00 in assay [2] (ERK2 enzyme assay (1)), > 6.00 on human PI3Kα protein and ≤ 4.60 in the assay with CHO-K1 cells.

With `CCCc1cnnc(Nc2ccc3ncc(-c4cnn(CCCN5CCCC5)c4)cc3n2)c1` [Example 0293], the pIC50 in assay [1] (ERK2 enzyme assay (2)) is > 6.00; in assay [2] (ERK2 enzyme assay (1)), > 6.00; at human PI3Kα protein, > 6.00; in the assay on CHO-K1 cells it was ≤ 4.60.

As to `OCCCn1cc(-c2cnc3ccc(Nc4nnc(C5CCCC5)s4)nc3c2)cn1` [Example 0316, 3-(4-(6-((5-cyclopentyl-1,3,4-thiadiazol-2-yl)amino)-1,5-naphthyridin-3-yl)-1H-pyrazol-1-yl)propan-1-ol], the pIC50 in assay [1] (ERK2 enzyme assay (2)) was > 6.00; in assay [2] (ERK2 enzyme assay (1)), > 6.00; at human PI3Kα protein, > 6.00; with CHO-K1 cells, ≤ 4.60.

On to `Cc1nn(CCCN2CCCC2)cc1-c1cnc2ccc(Nc3nnc(C(C)C)s3)nc2c1` [Example 0321, 5-isopropyl-N-(7-(3-methyl-1-(3-(pyrrolidin-1-yl)propyl)-1H-pyrazol-4-yl)-1,5-naphthyridin-2-yl)-1,3,4-thiadiazole-2-amine], for which the pIC50 in assay [1] (ERK2 enzyme assay (2)) is > 6.00; in assay [2] (ERK2 enzyme assay (1)), > 6.00; at human PI3Kα protein it was > 6.00; with CHO-K1 cells it was ≤ 4.60.

As to `c1nnc(Nc2ccc3ncc(-c4cnn(CCCN5CCCC5)c4)cc3n2)s1` [Example 0322], the pIC50 in assay [1] (ERK2 enzyme assay (2)) is > 6.00; in assay [2] (ERK2 enzyme assay (1)), > 6.00; on human PI3Kα protein it was > 6.00; in the assay on CHO-K1 cells, ≤ 4.60.

On to `OCC(O)Cn1cc(-c2cnc3ccc(Nc4nnc(C5CCCC5)s4)nc3c2)cn1` (stereo not shown) [Example 0338, 3-(4-(6-((5-Cyclopentyl-1,3,4-thiadiazol-2-yl)amino)-1,5-naphthyridin-3-yl)-1H-pyrazol-1-yl)propane-1,2-diol], for which the pIC50 is > 6.00 in assay [1] (ERK2 enzyme assay (2)), > 6.00 in assay [2] (ERK2 enzyme assay (1)), > 6.00 on human PI3Kα protein and ≤ 4.60 in the assay with CHO-K1 cells.

Consider `O=C(CCn1cc(-c2cnc3ccc(Nc4nnc(C5CCCC5)s4)nc3c2)cn1)N1CCCC1` [Example 0341, 3-(4-(6-((5-cyclopentyl-1,3,4-thiadiazol-2-yl)amino)-1,5-naphthyridin-3-yl)-1H-pyrazol-1-yl)-1-(pyrrolidin-1-yl)propan-1-one], for which the pIC50 in assay [1] (ERK2 enzyme assay (2)) is > 6.00; in assay [2] (ERK2 enzyme assay (1)), > 6.00; on human PI3Kα protein, > 6.00; with CHO-K1 cells, ≤ 4.60.

With `Cc1nn(C)cc1-c1cnc2ccc(Nc3nnc(C4CCCC4)s3)nc2c1` [Example 0347], the pIC50 in assay [1] (ERK2 enzyme assay (2)) was > 6.00; in assay [2] (ERK2 enzyme assay (1)), > 6.00; at human PI3Kα protein, > 6.00; in the assay on CHO-K1 cells, ≤ 4.60.

Turning to `Cc1c(-c2cnc3ccc(Nc4nnc(C5CCCC5)s4)nc3c2)cnn1C` [Example 0348], the pIC50 in assay [1] (ERK2 enzyme assay (2)) is > 6.00; in assay [2] (ERK2 enzyme assay (1)), > 6.00; on human PI3Kα protein it was 5.00 to 6.00; with CHO-K1 cells, ≤ 4.60.

Turning to `FC1(F)CCN(CCCn2cc(-c3cnc4ccc(Nc5nnc(C6CCCC6)s5)nc4c3)cn2)C1` [Example 0352], the pIC50 in assay [1] (ERK2 enzyme assay (2)) was > 6.00; in assay [2] (ERK2 enzyme assay (1)), > 6.00; on human PI3Kα protein it was > 6.00; with CHO-K1 cells it was ≤ 4.60.
